Where a chain is given by its changes, count along the chain named.
Tests used:
[1] = tested on: SNAP-Gal4 and CLIP-AD2 (firefly luciferase under the control of 9 UAS elements); assay: Luciferase up-regulation through dimerization of SNAP-Gal4 and CLIP-AD2 in transfected HEK293 cells (pGL4.35 reporter); assay type: cell-based; conditions: for luciferase expression after UV illumination: 20 μM, 96-well plate, 365 nm UV for 10 minutes just after application, harvested one day after, FIG. 8d; for luciferase production: HEK293, harvested 24 hours after treatment, FIG. 8a
From the text: pGL4.35 (obtained from Promega of Singapore) contains firefly luciferase under the control of 9 UAS elements. SNAP was amplified from pSNAPf with SNAP-XhoI-C and SNAP NheI N; CLIP from pCLIPf with NheI NLC CLIP and SNAP-XhoI-C; Gal4 from pCMV-Gal4 with Gal4 HisTag BamHI and SNAP-Gal4 N; activation domains (AD2) from pHet-Act2-1 with SNAP-p65AD-HSF1AD N and p65 AD-HSF1AD HisTag BamHI. The individual PCR reactions were combined by SOEing PCR (Splicing by Overlap Extension) to make SNAP-Gal4 and CLIP-AD2 PCR products. These were then cloned into peGFP-C1 with the NheI and BamHI sites, removing eGFP in the process. Both constructs contained the nuclear localizing signal.
(§1) HEK293 cells were obtained from ATCC and grown in DMEM medium supplemented by 10% FCS and penicillin-streptomycin at 37° C. and 5% carbon dioxide. All experiments performed were carried out in 24 well plates seeded with 1×10^5 cells per well. Transfection was performed with Lipofectamine 2000 (Invitrogen™, Life Technologies of Singapore) as per manufacturer's instructions the day after seeding. Medium was changed the day after transfection.
(§2) The dimerizers (or Compounds 1 and 2) were dissolved to 1 mM in DMSO and diluted further with DMSO so all applications were done by adding 4 μl of DMSO with compound 1 dissolved in it to 400 μl of medium for each well. Compound 1 was added at the mentioned concentration two days after transfection and incubated for 3 to 6 hours before the cells were harvested with RIPA Lysis and Extraction buffer (from Thermo Fisher Scientific Inc of Illinois of the United States of America). Compound 2 was added at the mentioned concentration three days after transfection and incubated for a specified duration before the cells were harvested.
HEK293 cells (in a 24-well plate) transfected with 400 ng pSNAP-Gal4 (Gal4 is a DNA-binding domain fused to SNAP), 200 ng pCLIP-AD2 (AD2 is a transcriptional activator fused to CLIP) and 100 ng pGL4.35 (GL4.35 is a luciferase reporter construct containing nine Gal4 binding motif for gene activation) were treated with stated amounts of either Compound 1 or 2 in 400 μl medium 1 day after transfection. Cells were harvested 24 hours after treatment and the levels of luciferase measured. FIG. 7 is a schematic diagram showing the up-regulation of luciferase.
Here, the cells were transfected as above and 8 μM of compound 2 was added to the cells one day after transfection. One day after, the cells were either illuminated with a fluorescent lamp or with a 365 nm UV lamp for 5 minutes. 0, 6, 24 or 48 hours later, the cells were harvested and the levels of luciferase measured.
The cells were transfected as above and 10 μM of compound 2 was added to the cells one day after transfection. One day after, the cells were illuminated with a 365 nm UV lamp for 10 minutes. […] Experiments were carried out in triplicates. The purpose of this experiment is to use a slightly higher amount of compound 2 and a longer UV irradiation time to optimize the linker cleavage.
HEK293 cells were transfected with the same ratio of plasmids in a 96-well plate and treated with 2% DMSO, 20 μM compound 1 or 20 μM compound 2 one day after transfection. Just after application, some of the cells were illuminated with 365 nm UV for 10 minutes. One day after, the cells were harvested.

SNAP-eGFP and CLIP-eGFP = target: T1, SNAP-eGFP and CLIP-eGFP (Homo sapiens, UniProt P16455, A121V/A127T/A154D/C150Q/C62A/E30R/G131K/G131N/G132T/G153L/G153S/K125A/K32I/L33F/M134L/M60I/N157G/N157P/Q115S/Q116H/R128A/R135D/R135S/S151G/S152D/S159E/S159L/Y114E); assay: Dimerization of SNAP-eGFP and CLIP-eGFP in transfected HEK293 cells, western blot against eGFP; assay type: cell-based
T1 construct: host or cells: HEK293
T1 sequence (P16455 1-182 E30R/K32I/L33F/C62A/Q115S/Q116H/K125A/A127T/R128A/G131K/G132T/M134L/R135S/C150Q/S151G/S152D/G153L/A154D/N157G/S159E limits assumed): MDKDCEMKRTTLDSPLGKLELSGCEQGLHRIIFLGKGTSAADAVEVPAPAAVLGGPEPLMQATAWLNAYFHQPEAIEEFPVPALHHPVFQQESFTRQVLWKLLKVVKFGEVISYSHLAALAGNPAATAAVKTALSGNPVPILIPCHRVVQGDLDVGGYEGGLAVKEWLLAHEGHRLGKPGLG
T1 sequence (P16455 1-182 E30R/K32I/L33F/M60I/C62A/Y114E/Q115S/Q116H/A121V/K125A/A127T/R128A/G131N/G132T/M134L/R135D/C150Q/S151G/S152D/G153S/A154D/N157P/S159L limits assumed): T1 sequence (P16455 1-182 E30R/K32I/L33F/C62A/Q115S/Q116H/K125A/A127T/R128A/G131K/G132T/M134L/R135S/C150Q/S151G/S152D/G153L/A154D/N157G/S159E limits assumed) with M60I, Y114E, A121V, K131N, S135D, L153S, G157P, E159L
From the text: Mammalian expression vectors for SNAP-eGFP and CLIP-eGFP were constructed from pSNAPf and pCLIPf (obtained from New England Biolabs of Singapore). eGFP was amplified using primers XhoI eGFP F and NotI eGFP R from pEGFP-NAD. The amplified DNA fragment was digested using XhoI/NotI and cloned into pSNAPf and pCLIPf for C-terminal fused eGFP-SNAP and eGFP-CLIP constructs respectively.
as §1
as §2, with “harvested. […]” for “harvested.”
HEK293 cells were transfected with 250 ng of SNAP-eGFP and CLIP-eGFP. 3 days after transfection, increasing concentrations of 0.1 to 10 μM (0.1 μM, 0.4 μM, 1 μM, 4 μM, and 10 μM) of photocleavable dimerizer (Compound 2) were applied to the cells with fresh medium and the cells were harvested 6 hours after. […] The cleaved samples were equivalent volumes of uncleaved samples subjected to 365 nm illumination for 10 minutes.

| reversal of dimerization by 365 nm illumination (SNAP-eGFP and CLIP-eGFP; 365 nm illumination for 10 minutes, FIG. 6d) | stability of the dimer in the cell (no change in dimerization) (SNAP-eGFP and CLIP-eGFP; HEK293, 5 μM, FIG. 6c) [days] | time after application to maximal dimerization (SNAP-eGFP and CLIP-eGFP; HEK293, 5 μM, FIG. 6c) [h] | time after application to near saturation of dimerization (SNAP-eGFP and CLIP-eGFP; HEK293, 5 μM, FIG. 6c) [h] | dimerization of SNAP-eGFP and CLIP-eGFP (specificity) (SNAP-eGFP and CLIP-eGFP; HEK293, SNAP-eGFP and CLIP-eGFP together vs either alone, 0, 5 or 20 μM, harvested 6 hours after, FIG. 6a) | cell penetration (SNAP-eGFP and CLIP-eGFP; HEK293 cells in culture, applied with DMSO) | concentration at which dimerization occurs (SNAP-eGFP and CLIP-eGFP; HEK cells, 0.1 nM to 10,000 nM applied, harvested 3 hours after, FIG. 6b) [nM] | dose dependence of heterodimerization (SNAP-eGFP and CLIP-eGFP; HEK cells, 0.1 nM to 10,000 nM, harvested 3 hours after, FIG. 6b) | SMILES | expression of luciferase, UV illumination compared to fluorescent lamp ([1]; 8 μM, 365 nm UV lamp for 5 minutes, harvested 0, 6, 24 or 48 hours later, FIG. 8b) | luciferase expression after UV illumination [1] | luciferase upregulation after exposure to UV illumination ([1]; FIG. 8b to FIG. 8d) | luciferase production [1] | induction of dimerization of SNAP-eGFP and CLIP-eGFP (SNAP-eGFP and CLIP-eGFP; HEK293, 0.1 to 10 μM, harvested 6 hours after, FIG. 6d) |
| --- | --- | --- | --- | --- | --- | --- | --- | --- | --- | --- | --- | --- | --- |
| partially reversing dimerization |  |  |  |  |  |  |  | COc1cc(C(C)NC(=O)CCCC(=O)NCc2ccc(COc3nc(N)nc4[nH]cnc34)cc2)c([N+](=O)[O-])cc1OCCCC(=O)NCCOCCOCCOCCNC(=O)NCc1ccc(COc2nccc(N)n2)cc1 (stereo not drawn) [Compound 2] | lower expression of luciferase | decreased luciferase expression | less effective | luciferase was produced | could induce dimerization at lower concentrations than compound 1 |
|  | ≥ 3 | ≤ 24 | 3 | heterodimerization occurred specifically | could penetrate cells in culture | 400 | dose-dependent manner | Nc1ccnc(OCc2ccc(CNC(=O)NCCOCCOCCOCCNC(=O)CCCC(=O)NCc3ccc(COc4nc(N)nc5[nH]cnc45)cc3)cc2)n1 [Compound 1] |  | did not |  | produced in a dose-dependent fashion |  |

— US20160297820A1, “DIMERIZER COMPOUND” (AGENCY FOR SCIENCE, TECHNOLOGY AND RESEARCH, priority 2013, published 2016)
